{"source": "the supplement of paper PMC11208160", "assay": "recombinant UMI read abundance after kanamycin selection (control-corrected) (log10(CPM+1)); higher = more efficient recombination; extreme values may be limits of the assay; sequences stand for … in AGTGCAGAGAAAATCGGCCAGTTTTCTCTGCCTGCAGTCCGCATGCCGTGGGACCCCTTGGGTTCTAACCTGTTGCCTAGATTTATGCAGCGGACTGCCTTTCTCCCAAAGTGATAAACCGG…AGGTTGGTTTCACT; site = the 11-nt donor", "protocol": "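Pooled E. coli donor-specificity screen for the IS621 bridge recombinase. Each library member carries a reprogrammed 11-nt donor and a full-length LE bridge RNA expressed in cis from the natural promoter, with a paired donor-binding loop (8-nt LDG + 4-nt RDG) and a target-binding loop fixed to T5. It is co-electroporated with a T5 target plasmid; recombinase is induced with 0.07 mM IPTG and recombinants are selected on kanamycin. UMIs are counted as CPM, averaged over two biological replicates and corrected by the unselected control. Molecule = full bridge RNA written as DNA, built from the T5 scaffold: LDG = donor specificity nt 1-8, RDG = reverse complement of nt 8-11.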", "data": [{"sequence": "ACAGTGTCATGGACCGGTTTTCCCGGTAATCCGTATTTGCC (site ACAGTATCTTG)", "values": [{"measurement": "recombinant UMI read abundance (log10)", "result": 2.05}]}, {"sequence": "ACAGTGTCATGGACCGGTTTTCCCGGTAATCCGTATTTGCC (site ACAGTGTCTGG)", "values": [{"measurement": "recombinant UMI read abundance (log10)", "result": 2.88}]}, {"sequence": "ACAGTTGCATGGACCGGTTTTCCCGGTAATCCGTATTTGCA (site ACAGTATCTTG)", "values": [{"measurement": "recombinant UMI read abundance (log10)", "result": 0}]}, {"sequence": "ACAGTTGCATGGACCGGTTTTCCCGGTAATCCGTATTTGCA (site ACAGTTGCTTG)", "values": [{"measurement": "recombinant UMI read abundance (log10)", "result": 1.81}]}, {"sequence": "ACAGTTTCATGGACCGGTTTTCCCGGTAATCCGTATTTGCA (site ACAGTATCTTG)", "values": [{"measurement": "recombinant UMI read abundance (log10)", "result": 2.55}]}, {"sequence": "ACAGTTTCATGGACCGGTTTTCCCGGTAATCCGTATTTGCA (site ACAGTCTCTTG)", "values": [{"measurement": "recombinant UMI read abundance (log10)", "result": 2.43}]}, {"sequence": "ACAGTTTCATGGACCGGTTTTCCCGGTAATCCGTATTTGCA (site ACAGTGTCTTG)", "values": [{"measurement": "recombinant UMI read abundance (log10)", "result": 1.52}]}, {"sequence": "ACAGTTTCATGGACCGGTTTTCCCGGTAATCCGTATTTGCA (site ACAGTTTCTTG)", "values": [{"measurement": "recombinant UMI read abundance (log10)", "result": 2.24}]}, {"sequence": "ACATACGCATGGACCGGTTTTCCCGGTAATCCGTATTTGGC (site ACATACGCTGC)", "values": [{"measurement": "recombinant UMI read abundance (log10)", "result": 2.78}]}, {"sequence": "ACATCGACATGGACCGGTTTTCCCGGTAATCCGTATTTGTG (site ACATCAACTCA)", "values": [{"measurement": "recombinant UMI read abundance (log10)", "result": 0.397}]}, {"sequence": "ACATCGACATGGACCGGTTTTCCCGGTAATCCGTATTTGTG (site ACATCCACTCA)", "values": [{"measurement": "recombinant UMI read abundance (log10)", "result": 0.0171}]}, {"sequence": "ACATCGACATGGACCGGTTTTCCCGGTAATCCGTATTTGTG (site ACATCGACTCA)", "values": [{"measurement": "recombinant UMI read abundance (log10)", "result": 0.245}]}, {"sequence": "ACATCGACATGGACCGGTTTTCCCGGTAATCCGTATTTGTG (site ACATCTACTCA)", "values": [{"measurement": "recombinant UMI read abundance (log10)", "result": 0.00913}]}, {"sequence": "ACATCTACATGGACCGGTTTTCCCGGTAATCCGTATTTGAG (site ACATCTACTCA)", "values": [{"measurement": "recombinant UMI read abundance (log10)", "result": 0.0306}]}, {"sequence": "ACATCTACATGGACCGGTTTTCCCGGTAATCCGTATTTGAG (site ACATCTACTCC)", "values": [{"measurement": "recombinant UMI read abundance (log10)", "result": 0.184}]}, {"sequence": "ACATCTACATGGACCGGTTTTCCCGGTAATCCGTATTTGAG (site ACATCTACTCG)", "values": [{"measurement": "recombinant UMI read abundance (log10)", "result": 0.0217}]}, {"sequence": "ACATCTACATGGACCGGTTTTCCCGGTAATCCGTATTTGAG (site ACATCTACTCT)", "values": [{"measurement": "recombinant UMI read abundance (log10)", "result": 1.67}]}, {"sequence": "ACATCTACATGGACCGGTTTTCCCGGTAATCCGTATTTGTA (site ACATCTACTAA)", "values": [{"measurement": "recombinant UMI read abundance (log10)", "result": 0.0109}]}, {"sequence": "ACATCTACATGGACCGGTTTTCCCGGTAATCCGTATTTGTA (site ACATCTACTCA)", "values": [{"measurement": "recombinant UMI read abundance (log10)", "result": 0.0123}]}, {"sequence": "ACATCTACATGGACCGGTTTTCCCGGTAATCCGTATTTGTA (site ACATCTACTGA)", "values": [{"measurement": "recombinant UMI read abundance (log10)", "result": 0}]}, {"sequence": "ACATCTACATGGACCGGTTTTCCCGGTAATCCGTATTTGTA (site ACATCTACTTA)", "values": [{"measurement": "recombinant UMI read abundance (log10)", "result": 0.989}]}, {"sequence": "ACATCTCCATGGACCGGTTTTCCCGGTAATCCGTATTTGTG (site ACATCTACTCA)", "values": [{"measurement": "recombinant UMI read abundance (log10)", "result": 0.0166}]}, {"sequence": "ACATCTCCATGGACCGGTTTTCCCGGTAATCCGTATTTGTG (site ACATCTCCTCA)", "values": [{"measurement": "recombinant UMI read abundance (log10)", "result": 0.00967}]}, {"sequence": "ACATCTCCATGGACCGGTTTTCCCGGTAATCCGTATTTGTG (site ACATCTGCTCA)", "values": [{"measurement": "recombinant UMI read abundance (log10)", "result": 0.0416}]}, {"sequence": "ACATCTCCATGGACCGGTTTTCCCGGTAATCCGTATTTGTG (site ACATCTTCTCA)", "values": [{"measurement": "recombinant UMI read abundance (log10)", "result": 0.00664}]}, {"sequence": "ACATCTTCATGGACCGGTTTTCCCGGTAATCCGTATTTGTG (site ACATCTACTCA)", "values": [{"measurement": "recombinant UMI read abundance (log10)", "result": 0.0158}]}, {"sequence": "ACATCTTCATGGACCGGTTTTCCCGGTAATCCGTATTTGTG (site ACATCTCCTCA)", "values": [{"measurement": "recombinant UMI read abundance (log10)", "result": 0.0151}]}, {"sequence": "ACATCTTCATGGACCGGTTTTCCCGGTAATCCGTATTTGTG (site ACATCTGCTCA)", "values": [{"measurement": "recombinant UMI read abundance (log10)", "result": 0}]}, {"sequence": "ACATCTTCATGGACCGGTTTTCCCGGTAATCCGTATTTGTG (site ACATCTTCTCA)", "values": [{"measurement": "recombinant UMI read abundance (log10)", "result": 0.969}]}, {"sequence": "ACATGAACATGGACCGGTTTTCCCGGTAATCCGTATTTGAC (site ACATGAACTGT)", "values": [{"measurement": "recombinant UMI read abundance (log10)", "result": 2.71}]}, {"sequence": "ACATGATCATGGACCGGTTTTCCCGGTAATCCGTATTTGCA (site ACAGTATCTTG)", "values": [{"measurement": "recombinant UMI read abundance (log10)", "result": 1.14}]}, {"sequence": "ACATGATCATGGACCGGTTTTCCCGGTAATCCGTATTTGCA (site ACATGATCTTG)", "values": [{"measurement": "recombinant UMI read abundance (log10)", "result": 2.74}]}, {"sequence": "ACATGCGCATGGACCGGTTTTCCCGGTAATCCGTATTTGGT (site ACATGCGCTAC)", "values": [{"measurement": "recombinant UMI read abundance (log10)", "result": 1.02}]}, {"sequence": "ACATTACCATGGACCGGTTTTCCCGGTAATCCGTATTTGGA (site ACATTACCTTC)", "values": [{"measurement": "recombinant UMI read abundance (log10)", "result": 0}]}, {"sequence": "ACATTATCATGGACCGGTTTTCCCGGTAATCCGTATTTGAA (site ACAGTATCTTG)", "values": [{"measurement": "recombinant UMI read abundance (log10)", "result": 0}]}, {"sequence": "ACATTATCATGGACCGGTTTTCCCGGTAATCCGTATTTGAA (site ACATTATCTTT)", "values": [{"measurement": "recombinant UMI read abundance (log10)", "result": 2.38}]}]}
